# Several values for one entry are separate records, joined by “and”; a condition that tells them apart may be missing. Equal entries are not always repeated. Marks after values point to notes of the source that are not given here.
# Assays:
# [1] = test system: THP-1 macrophages; assay: SHP-1 inhibitor effect on phagocytosis of IgG-opsonized particles by THP-1 macrophages; format: cell-based, human
# Experimental: FIG. 16, comprising FIG. 16A-16D, illustrates CD47-SIRPα signaling pathway from SHP-1 to myosin. Phagocytosis of IgG-opsonized particles with or without human CD47 of 100 nm particles (FIG. 16A) and 1.1 μm particles (FIG. 16B) were treated with an SHP-1 inhibitor (NSC-87877) at 62.5 nM and its effects were determined by the ratio of ingested particles per THP-1 phagocyte. The number of particles ingested was shown based on 200 phagocytes counted (n≧3, ±SD). The inset depicts the concentration dependence of NSC-87877 effect on particle uptake. Treatment of blebbistatin in THP-1 macrophages during phagocytosis of IgG-opsonized 100 nm particles (FIG. 16C) and 1.1 μm particles (FIG. 16D) depict inhibition of phagocytosis.
# For phagocytosis assays with CD47 attached particles at 100 nm to 1.1 μm diameter were IgG-opsonized. THP-1 macrophage, PMA activated were treated with 0-0.5 μM NSC-87877 an SHP-1 Inhibitor (gift from Frank L. Conlon) 5 minutes prior to the addition of IgG-opsonized particles. Phagocytosis assay occurred at 37° C. for 45 minutes and then fixed for 5 minutes with 5% formaldehyde as described for the phagocytosis assay (Fisher Scientific).
# To confirm the correlation between CD47 affect on inhibiting phagocytosis of both nano and micro sized particles, blocked SHP-1 should result in nullifying the CD47 signal. In order to specifically block SHP-1, an inhibitor NSC-87877 was used with a reported high specificity to SHP-1 (Chen et al., 2006, Mol. Pharmacol. 70(2):562-70; Langdon et al., 2007, Development 134(22):4119-30). […] The uptake of these particles was measured as the number of particles ingested per phagocyte.
# [2] = biological target: SHP-1 (Homo sapiens, UniProt P29350); details: Chen et al., 2006; read-out: reported IC50 for SHP-1; cited from earlier work
# Sequence of SHP-1 (P29350 whole entry): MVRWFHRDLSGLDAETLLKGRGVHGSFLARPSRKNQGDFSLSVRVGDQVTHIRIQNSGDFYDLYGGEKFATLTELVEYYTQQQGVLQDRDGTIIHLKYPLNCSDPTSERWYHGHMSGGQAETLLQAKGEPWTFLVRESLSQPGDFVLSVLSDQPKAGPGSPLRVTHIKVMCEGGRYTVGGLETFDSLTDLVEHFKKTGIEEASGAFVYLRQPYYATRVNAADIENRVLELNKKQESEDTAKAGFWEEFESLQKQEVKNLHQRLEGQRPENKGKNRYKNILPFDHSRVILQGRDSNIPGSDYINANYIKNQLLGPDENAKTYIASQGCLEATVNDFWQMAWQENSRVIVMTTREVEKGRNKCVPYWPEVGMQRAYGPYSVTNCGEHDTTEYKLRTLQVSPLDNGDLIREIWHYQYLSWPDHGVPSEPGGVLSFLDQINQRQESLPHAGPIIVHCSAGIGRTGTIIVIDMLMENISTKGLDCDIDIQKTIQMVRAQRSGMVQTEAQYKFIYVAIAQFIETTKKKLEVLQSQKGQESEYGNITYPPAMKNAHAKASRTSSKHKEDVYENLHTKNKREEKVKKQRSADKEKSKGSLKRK
# [3] = biological target: THP-1 macrophages; assay: Phagocytosis of IgG-opsonized streptavidin beads with or without hCD47 by THP-1 macrophages; format: cell-based, human; details: particle radius 3.4 μm
# [4] = biological target: THP-1 macrophages; assay: as above; format: cell-based, human; details: for Ki (minimum hCD47 density to inhibit uptake): IgG-opsonized
# Experimental: The extracellular immunoglobulin-like domains of human CD47 (hCD47) was recombinantly expressed with a spacer domain (Brown et al., 1994, Protein Eng. 7:515-21; Brown et al., 1998, J. Exp. Med. 188:2083-90) plus a C-terminal biotinylation site. […] The beads were opsonized by pretreatment with anti-streptavidin to again induce FcR-mediated phagocytosis (for 45 minutes at 37° C.), and non-engulfed beads were detected with a flourescein anti-Fc against the IgG-opsonin. The number of adherent IgG-opsonized beads per phagocyte was independent of hCD47 (not shown).
# For phagocytosis assays, macrophages were plated in 4 cm^2, or 2 cm^2 Lab-Tek II Chambered Coverglass (Nalge Nunc International, Naperville, Ill.) at 1.5×10^5/cm^2. Streptavidin polystyrene beads of different radius: 3.5 μm, 1.1 μm, 160 nm (Spherotech) and 100 nm (Ademtech) were added to macrophages at a ratio of 2:1, 20:1, 277:1, and 2206:1 respectively and incubate at 37° C. for 45 min. […] Non-phagocytosed beads were washed with PBS. Cells were fixed with 5% formaldehyde (Fisher Scientific) for 5 minutes, followed by immediate replacement with PBS. For differentiation of non-internalized beads, beads were labeled with a primary antibody, rabbit anti-streptavidin (Sigma) at 1:1000 in PBS for 20 min at 25° C. A second antibody, anti-rabbit R-PE (Sigma) was added at 1:1000 in PBS to the cells and incubated for an additional 20 minutes at 25° C. Cells were then washed with PBS/0.4% BSA and then quantified by light and fluorescent microscopy. At least 200 cells were scored per well and experiments were repeated at least three times.
# For stimulated phagocytosis assays, beads with or without CD47 were incubated with rabbit anti-streptavidin as the IgG opsonin. Beads were opsonized at a concentration 1:1000 for 30 min at 25° C. Opsonized beads were washed 2× and resuspended in 50 μl of PBS/0.4% BSA. Phagocytes were washed with PBS and uningested beads were labeled as described above.
# For cytoskeletal involvement at the phagocytic synapse, streptavidin beads opsonized with rabbit anti-streptavidin FITC. Opsonized beads of different sizes were added to THP-1 cells, PMA treated and immediately placed at 4° C. for 10 min to synchronize phagocytosis. […] For studies involving blebbistatin (EMD Biosciences), macrophages were treated for 10 min at 4° C. prior to temperature increase to 37° C. or for 45 min and 37° C. Macrophages treated with DMSO were used to verify no solvent effects.
# Beads were opsonized at saturating densities of IgG, and over a 20-fold range of CD47 densities, the number of internalized beads per THP-1 was measured. […] The normal level of CD47 density found on human RBC (Subramanian et al., 2006, Blood 107(6):2548-2556) was indicated by the vertical bars and humans with certain Rhnull phenotypes with reduced levels of CD47 (Mouro-Chanteloup et al., 2003, Blood 101 (1):338-344; Arndt et al., 2004, Br. J. Haematol. 125(3):412-4) was indicated by the vertical bars. The minimum number of CD47 inhibition appears to be consistent across a 30-fold particle size range as depicted by the vertical bars.
# [5] = test system: human peripheral blood monocytes; assay: Phagocytosis of hCD47 beads by human peripheral blood monocytes; format: cell-based; details: FIG. 6D
# Experimental: FIG. 6, comprising […], illustrates that human-CD47 is sufficient to inhibit phagocytosis. FIG. 6A depicts streptavidin beads coated with both anti-streptavidin IgG as the opsonin and biotinylated human-CD47. Phagocytosis of beads by THP-1 cells was assessed in DIC and fluorescence with non-ingested beads visible with rabbit anti-streptavidin plus a second, goat anti-rabbit antibody. The scale bars are 10 μm. […] Inset bar graph compares to inhibited phagocytosis of uncoated beads after 10 min pretreatment of THP-1 cells with blebbistatin (50 μM). FIG. 6C depicts inhibition of phagocytosis depends on density of human-CD47 on beads. FIG. 6D depicts a bar graph comparing hCD47 inhibition of phagocytosis in peripheral blood monocytes.
# The extracellular immunoglobulin-like domains of human CD47 (hCD47) was recombinantly expressed with a spacer domain (Brown et al., 1994, Protein Eng. 7:515-21; Brown et al., 1998, J. Exp. Med. 188:2083-90) plus a C-terminal biotinylation site. […] The beads were opsonized by pretreatment with anti-streptavidin to again induce FcR-mediated phagocytosis (for 45 minutes at 37° C.), and non-engulfed beads were detected with a flourescein anti-Fc against the IgG-opsonin. The number of adherent IgG-opsonized beads per phagocyte was independent of hCD47 (not shown). […]
# [6] = biological target: human CD47 on human red blood cells (human) (UniProt Q08722); assay: cell-based or functional assay
# Sequence of human CD47 on human red blood cells (human) (Q08722 other isoform, or with tags, fused parts or gaps limits assumed): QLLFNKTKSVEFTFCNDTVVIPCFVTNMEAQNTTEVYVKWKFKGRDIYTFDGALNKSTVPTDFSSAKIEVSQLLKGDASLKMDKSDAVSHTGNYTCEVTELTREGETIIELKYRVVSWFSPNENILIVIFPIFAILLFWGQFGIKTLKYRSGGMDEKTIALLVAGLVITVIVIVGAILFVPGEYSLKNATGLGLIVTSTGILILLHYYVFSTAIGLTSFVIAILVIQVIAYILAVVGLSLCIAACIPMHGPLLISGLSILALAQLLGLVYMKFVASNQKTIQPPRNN
# [7] = 100 nm particles, NSC-87877 62.5 nM
compound,measurement,setting,value
O=S(=O)(O)c1ccc2cc(N=Nc3cc(S(=O)(=O)O)c4cccnc4c3O)ccc2c1 [NSC-87877],"particles ingested per phagocyte, beads without hCD47",[1]; [7],no statistical difference
same,"particles ingested per phagocyte, hCD47 particles",[1]; [7],an increase of ingested particles
same,uptake of 1.1 μm particles coated with hCD47,"[1]; NSC-87877, FIG. 16B",increase in uptake comparable to uncoated IgG-opsonized particles
same,IC50,[2],500 nM
"hCD47: extracellular immunoglobulin-like domains of human CD47 recombinantly expressed with a spacer domain plus C-terminal biotinylation site, attached to streptavidin-coated beads",Ki (minimum hCD47 density to inhibit uptake),[3],27.6 molecules/μm^2
same,effective Ki of phagocytosis inhibition,"[4]; all particle sizes tested, micro to nano-meter beads (100 nm to 3.5 μm)",approximately 20 molecules/μm^2
same,effective Ki of phagocytosis inhibition,"[4]; all particle sizes tested, micro to nano-meter beads (100 nm to 3.5 μm), listed as human CD47",~20 molecules/μm^2
same,effective Ki of phagocytosis inhibition,"[4]; approximately 2.1 μm beads, FIG. 6C",≈ 20 molecules/μm^2
same,Ki at high opsonin,[4]; beads opsonized at saturating densities of IgG,20 CD47/μm^2
same,Ki (minimum hCD47 density to inhibit uptake),[4]; particle radius 1.1 μm,20* molecules/μm^2
same,Ki (minimum hCD47 density to inhibit uptake),[4]; particle radius 100 nm,19.9 molecules/μm^2
same,Ki (minimum hCD47 density to inhibit uptake),[4]; particle radius 160 nm,13.6 molecules/μm^2
same,fraction of normal CD47 densities sufficient to inhibit phagocytosis,[4]; relative to normal human RBC density,10-20%
same,phagocytosis of beads bearing high densities of hCD47,[5],similarly potent reduction in phagocytosis
anti-CD47 F(ab')2 generated from monoclonal antibody B6H12,phagocytosis of IgG-opsonized human RBCs by human phagocytes after CD47 blocking,[6],2 fold and 3 fold
